# PubChem BioAssay (NCI)
# Where “and” joins values, the source holds several entries; their conditions need not be identical. Identical values can stand only once.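 The compound was tested at five concentrations on cells cultured in 96-well plates, with a 48-hour exposure period. The concentration for 50% growth inhibition is given as GI50. TGI: concentration producing complete growth inhibition.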
# Test system: MDA-MB-468 breast
# Test: NCI-60 cell line screen, 48 h
Compound,GI50,TGI
CCOC(=O)/C(C#N)=C/c1ccc2c(c1)CC1(C2)Cc2cc(CC)c(C(C)O)cc2C1 (configuration not stated),12.4 µM,36.8 µM
COc1cc(Cl)cc(-c2nn(-c3cccc(NC(=O)Nc4ccc(Cl)c(C(F)(F)F)c4)c3)cc2-c2ccncc2)c1,0.99 µM,5.47 µM
COc1ccc(Nc2cc(C)nc(N3CCN(c4ccnc5cc(Cl)ccc45)CC3)n2)cc1,1.77 µM,5.57 µM
COc1ccc(-c2nn(-c3cccc(NC(=O)c4ccc(N5CCOCC5)c(C(F)(F)F)c4)c3)cc2-c2ccncc2)cc1Cl,6.88 µM,> 50 µM
Cn1cnc([N+](=O)[O-])c1Sc1ncn[nH]1,21 µM,> 100 µM
CCN(CC)CCOc1ccc(C(=O)/C=C\c2ccc(Cl)cc2Cl)cc1,5.05 µM,19 µM
O=C1NCCS(=O)(=O)/C1=C\C=C\c1cccc(C(F)(F)F)c1,1.56 µM,4.53 µM
CCO/C=N/C1=C(C#N)C(c2ccc(OC)cc2)c2sc3c(C)cccc3c2O1 (configuration not stated),0.276 µM,5.69 µM
O=C(Nc1ccc(I)cc1F)c1cc(Cl)ccc1O,0.361 µM,1.73 µM
COc1ccc2nc(NC(=O)c3cccnc3Nc3cc(OC)c(OC)c(OC)c3)sc2c1,17.8 µM,62.7 µM
COc1cc(/C=C/C(=O)c2cccnc2Nc2ccc(F)cc2)cc(OC)c1OC,1.77 µM,5.67 µM
C#Cc1nc(C2=C(C)C(OC(C)=O)/C(=N/OC(C)=O)C2)cs1 (configuration not stated),2.07 µM,8.72 µM
Oc1ccc(Cl)cc1CNc1nc2ccccc2[nH]1,5.72 µM,21.9 µM
CN(C)CCN1C(=O)c2cccc3cccc(c23)C1=O,10.3 µM,> 25 µM
Cc1nc(Nc2nc3ccccc3o2)nc(-c2cccc([N+](=O)[O-])c2)c1C(=O)Nc1ccc(F)c(Cl)c1,1.28 µM,6.44 µM
COc1ccc(C2=CC(c3ccc(OC)c(OC)c3)c3c(c4ccccc4oc3=O)O2)cc1OC (configuration not stated),0.475 µM,8.3 µM

Compound,GI50,TGI
CO[C@H]1CC(c2ccc[nH]2)=N[C@]12O[C@@H](C)C[C@@H]1CCCCCCCc3ccc([nH]3)[C@H]12,0.444 µM,3.62 µM
Cc1cccc2c(N)c3ccccc3nc12,1.44 µM,4.63 µM
CC(C)COC(=O)c1ccc2[nH]c(O)c(C=Nc3ccc(S(N)(=O)=O)cc3)c2c1,1.57 µM,4.36 µM
O=S(=O)(NCCNc1nccc(-c2c(-c3ccc(F)cc3)nc3sccn23)n1)c1ccccc1,4.34 µM,> 100 µM
CCCNc1nc2ccccc2c2c1S(=O)(=O)c1ccc(Cl)cc1C2=O,0.195 µM,1.47 µM
c1ccc(CNc2nc(Nc3ccccc3)nc3ccccc23)cc1,1.09 µM,2.56 µM
COc1cc(/C=N/NC(=O)c2cn(C3CC3)c3c(OC)c(N4CC5CCCNC5C4)c(F)cc3c2=O)ccc1O (configuration not stated),1.63 µM,3.11 µM
CCn1c2ccccc2c2cc(C(O)c3cccc4ncccc34)ccc21 (configuration not stated),0.0326 µM,0.849 µM
CC(=O)Oc1ccc(C(c2ccc(OC(C)=O)cc2)c2ccccn2)cc1,0.458 µM and 1.34 µM,25 µM and 45.2 µM
CCN(CC)CCSCCCNc1c2ccc(Cl)cc2nc2ccc(OC)cc12,1.5 µM,3.05 µM
C=C1c2c(Cl)ccc(O)c2C(O)=C2C(=O)[C@]3(O)C(O)=C(C(N)=O)C(=O)[C@@H](N(C)C)[C@@H]3[C@@H](O)[C@H]12,0.846 µM,2.56 µM
Cn1c(=O)c(Oc2ccc(F)cc2F)cc2cnc(NCCS(C)(=O)=O)nc21,> 25 µM,> 25 µM
COc1ccc(OC)c(Nc2nc(-c3c(C)nc4sccn34)cs2)c1,1.7 µM,75.3 µM
CC(C)CCN[C@@H]1CCc2cc(O)c(N3CC(=O)NS3(=O)=O)c(F)c2C1,> 100 µM,> 100 µM
C/C=C(\C)C(=O)N[C@H]1C(O)C[C@]2(C)C3CC[C@@]4(C)C(CC[C@@H]4C(C)N(C)C)C3CCC2C1O (some centres not stated),1.7 µM,4.54 µM
